This assay relates to T1, Hco-L-AChR-1.1 (UNC-29.1/UNC-38/UNC-63/ACR-8).
T1 construct: cRNAs co-injected in Xenopus laevis oocytes with H. contortus ancillary ric-3.1, unc-50, unc-74; wild-type clones from earlier studies; S168T acr-8 cloned from isolate MHco18 (UGA2004), vector pTB207
Kind of assay: two-electrode voltage clamp, Xenopus oocytes. The format is cell-based, Haemonchus contortus. The conditions noted are these: agonist, 100 mM NaCl, 2.5 mM KCl, 1 mM CaCl2, 5 mM HEPES, pH 7.3, currents normalised to 100 μM ACh. From the text: two-electrode voltage clamp, Xenopus oocytes on Hco-L-AChR-1.1 (UNC-29.1/UNC-38/UNC-63/ACR-8)

Like-named read-outs stand apart in the source and are kept apart here.

In the case of `CC(=O)OCC[N+](C)(C)C` [ACh, acetylcholine], the concentration giving a half-maximal response (EC50) (read-out: ACh EC50) stood at 4.2 ± 1.1 µM.
In the case of `c1ccc([C@H]2CN3CCSC3=N2)cc1` [LEV, levamisole], the EC50 (read-out: LEV EC50) is 3.2 ± 1.1 µM.

By EC50 is commonly meant the concentration needed to bring the measured effect to its halfway point.

These data come from paper PMC10867575, “Functional validation of novel levamisole resistance marker S168T in Haemonchus contortus” (International Journal for Parasitology: Drugs and Drug …, 2024).
